Consider three molecules from patent US20230210846A1, “TREATMENT FOR AMYLOIDOSIS” (Zeno Management,Inc., priority 2020, published 2023).

For experiment [1], the system named is KMS-12-BM cells. In words: Tumor growth study in KMS-12-BM mouse model. In kind it is in vivo. The conditions noted are these: for tumor growth inhibition (TGI): KMS-12-BM model. Here is the method: Tumor volumes were evaluated twice per week to calculate tumor volume over time, and mice were weighed twice per week as a surrogate for signs of toxicity. […] Td and Cd are the mean tumor volumes of the treated and control animals, and T0 and C0 are the mean tumor volumes of the treated and control animals at the start of the experiment.
(§1) Tumor volumes were evaluated twice per week to calculate tumor volume over time, and mice were weighed twice per week as a surrogate for signs of toxicity. Tumor growth inhibition (TGI) was calculated using the following equation TGI=(1−(Td−T0)/(Cd−C0))×100%. Td and Cd are the mean tumor volumes of the treated and control animals, and T0 and C0 are the mean tumor volumes of the treated and control animals at the start of the experiment.
as §1

For experiment [2], the system named is OPM-2 cells. Put plainly: Tumor growth study in OPM-2 mouse model. In kind it is in vivo. The settings on record: OPM-2 subcutaneous model, 100 mg/kg oral gavage once a day, after 10 days. Here is the method: It is understood that compound activity in MM models is predictive of activity in amyloidosis (e.g. AL amyloidosis) models and/or patients.
Mice were inoculated with OPM-2 cells subcutaneously on the right flank with the single cell suspension of 95% viable tumor cells (1×10^7) in 200 μL RPMI-1640 Matrigel mixture (1:1 ratio) without serum for the tumor development. The treatment was started when the mean tumor size reached approximately 200 mm^3, with individual tumor size ranging from 180-220 mm^3. Animals were randomly distributed into treatment groups of 10 animals each and dosed with either vehicle (i.e. “Vehicle A”) or a compound of Formula (A) having the structure
(“Compound (A)”) at 100 mg/kg administered by oral gavage once a day. Tumor volumes were evaluated twice per week to calculate tumor volume over time, and mice were weighed twice per week as a surrogate for signs of toxicity. Tumor growth inhibition (TGI) efficiency was calculated using the following equation TGI=(1−(Td−T0)/(Cd−C0))×100%. Td and Cd are the mean tumor volumes of the treated and control animals, and T0 and C0 are the mean tumor volumes of the treated and control animals at the start of the experiment.

In the case of `CC(C)C[C@H](NC(=O)[C@H](Cc1ccccc1)NC(=O)c1cnccn1)B(O)O` [bortezomib, reference compound], the “tumor growth inhibition (TGI)” value in experiment [1] (single agent 0.5 mg/kg IP BIW, day 14) was found to be 46.5%.

Regarding `CC1(C)CCC(CN2CCN(c3ccc(C(=O)NS(=O)(=O)c4ccc(NC[C@H]5CC[C@](C)(O)CC5)c([N+](=O)[O-])c4)c(Oc4cnc5[nH]ccc5c4)c3)CC2)=C(C23CC(C(F)F)(C2)C3)C1` [Compound (A)], the “TGI efficacy (tumor growth inhibition)” value in experiment [2] worked out at 46%; in experiment [1] (KMS-12-BM subcutaneous model, single agent 100 mg/kg p.o. qd, day 14), 62.8%. Moreover, the “tumor growth inhibition (TGI)” value in experiment [1] (single agent 50 mg/kg p.o. qd x21, day 14) was 48.7%.

As to `C[C@@H]1C[C@H]2[C@@H]3CCC4=CC(=O)C=C[C@]4(C)[C@@]3(F)[C@@H](O)C[C@]2(C)[C@@]1(O)C(=O)CO` [dexamethasone, reference compound], the “tumor growth inhibition (TGI)” value in experiment [1] (single agent 1 mg/kg IP 5 days on 2 days off, day 14) is reported as 22.5%.
